From patent US8802114B2, “Pharmaceutical compositions of iron for oral administration” (priority 2011, dated 2014)

What was measured:
[1] = Sodium caprate (C10) solution compatibility of iron compounds, with centrifugation test for precipitation; type: physicochemical; details: in 55 mg/mL sodium caprate (C10)
Experimental: A test for precipitation was carried out. The solution formulations were centrifuged initially at 1000 rpm for 5 minutes. […] They were further centrifuged at 5000 rpm for 5 minutes.

[2] = Solution stability of sodium EDTA Fe+3 chelate with sodium caprate (visual observation); type: physicochemical; details: sodium caprate 55 mg/mL

Compound | Sodium caprate solution compatibility (observation) [1] | Compatibility with sodium caprate formulation (pre-formulation) [2]
Ferrous Gluconate [Ferrous Gluconate FCC/USP*] | C10 incompatibility | 
O=C(O)CN(CCN(CC(=O)O)CC(=O)O)CC(=O)O.[Fe+3].[Na+] [sodium EDTA iron chelate, ethylenediaminetetraacetic acid ferric sodium] |  | no gross incompatibility
NCC(=O)[O-].NCC(=O)[O-].[Fe+2] [Ferrous Bisglycinate (Ferrochel), Ferrous Bisglycinate] | precipitates in the presence of C10 | 
